Experimental data: patent US9609868B2, “Alkoximino-substituted anthranilic acid diamides as pesticides” (BAYER CROPSCIENCE AKTIENGESELLSCHAFT, priority 2013, dated 2017)

Key:
[1] = log P by HPLC on reversed-phase column (C18), EEC directive 79/831 Annex V.A8; type: physicochemical; conditions: HPLC reversed-phase C18, 43° C., data refer to the E isomer
Procedure: The log P values reported in the tables and Preparation Examples above were determined in accordance with EEC directive 79/831 Annex V.A8 by HPLC (High Performance Liquid Chromatography) using a reversed-phase column (C18). Temperature 43° C. The calibration is effected with unbranched alkan-2-ones (having 3 to 16 carbon atoms), for which the log P values are known.

Myzus persicae = Myzus persicae - spray test (MYZUPE); type: in vivo; conditions: application rate 100 g/ha, Chinese cabbage leaf disks
Procedure: Myzus persicae—Spray Test (MYZUPE)
Solvent: 78 parts by weight of acetone • • 1.5 parts by weight of dimethylformamide
(§1) Emulsifier: 0.5 parts by weight of alkylaryl polyglycol ether
(§2) To produce a suitable active compound preparation, 1 part by weight of active compound is mixed with the stated amounts of solvent and emulsifier, and the concentrate is diluted with emulsifier-containing water to the desired concentration.
Disks of Chinese cabbage leaves (Brassica pekinensis) infested by all stages of the green peach aphid (Myzus persicae) are sprayed with an active compound preparation of the desired concentration.
After the desired period of time, the efficacy in % is determined. 100% means that all the aphids have been killed; 0% means that none of the aphids have been killed.

Phaedon cochleariae = Phaedon cochleariae - spray test (PHAECO); type: in vivo; conditions: application rate 100 g/ha, Chinese cabbage leaf disks
Procedure: Phaedon cochleariae—Spray Test (PHAECO)
(§3) Solvent: 78.0 parts by weight of acetone • • 1.5 parts by weight of dimethylformamide
as §1, §2
After the desired period of time, the efficacy in % is determined. 100% means that all the beetle larvae have been killed; 0% means that no beetle larvae have been killed.

Spodoptera frugiperda = Spodoptera frugiperda - spray test (SPODFR); type: in vivo; conditions: application rate 100 g/ha, maize leaf disks
Procedure: Spodoptera frugiperda—Spray Test (SPODFR)
as §3, §1, §2
Leaf disks of maize (Zea mays) are sprayed with an active compound preparation of the desired concentration and, after drying, populated with caterpillars of the armyworm (Spodoptera frugiperda).
After the desired period of time, the efficacy in % is determined. 100% means that all the caterpillars have been killed; 0% means that no caterpillars have been killed.

CON=Cc1cc(C)c(NC(=O)c2cc(C(F)(F)F)nn2-c2ncccc2Cl)c(C(=O)NNC(C)=O)c1 (mixture of isomers) [A-32]
log p ([1]; Table A): 2.38 | efficacy (aphids killed) (Myzus persicae): 90% | efficacy (beetle larvae killed) (Phaedon cochleariae): 100% | efficacy (caterpillars killed) (Spodoptera frugiperda): 100%

CON=Cc1cc(C)c(NC(=O)c2cc(OCC(F)(F)F)nn2-c2ncccc2Cl)c(C(=O)NNC(=O)OC)c1 (mixture of isomers) [A-33]
log p ([1]; Table A): 2.70 | efficacy (aphids killed) (Myzus persicae): 100% | efficacy (beetle larvae killed) (Phaedon cochleariae): 100% | efficacy (caterpillars killed) (Spodoptera frugiperda): 100%

CCOc1cc(C(=O)Nc2c(C)cc(C=NOC)cc2C(=O)NNC(=O)OC)n(-c2ncccc2Cl)n1 (mixture of isomers) [A-34]
log p ([1]; Table A): 2.26 | efficacy (aphids killed) (Myzus persicae): 90% | efficacy (beetle larvae killed) (Phaedon cochleariae): 100% | efficacy (caterpillars killed) (Spodoptera frugiperda): 100%

CON=Cc1cc(C)c(NC(=O)c2cc(OC(C)C)nn2-c2ncccc2Cl)c(C(=O)NNC(=O)OC)c1 (mixture of isomers) [A-35]
log p ([1]; Table A): 2.54 | efficacy (aphids killed) (Myzus persicae): 90% | efficacy (beetle larvae killed) (Phaedon cochleariae): 100% | efficacy (caterpillars killed) (Spodoptera frugiperda): 100%

CON=Cc1cc(C)c(NC(=O)c2cc(OC)nn2-c2ncccc2Cl)c(C(=O)NNC(=O)OC)c1 (mixture of isomers) [A-38]
log p ([1]; Table A): 2.00 | efficacy (beetle larvae killed) (Phaedon cochleariae): 100% | efficacy (caterpillars killed) (Spodoptera frugiperda): 100%

CON=Cc1cc(C)c(NC(=O)c2cc(CF)nn2-c2ncccc2Cl)c(C(=O)NNC(=O)OC)c1 (mixture of isomers) [A-44]
log p ([1]; Table A): 2.02 | efficacy (aphids killed) (Myzus persicae): 90% | efficacy (beetle larvae killed) (Phaedon cochleariae): 100% | efficacy (caterpillars killed) (Spodoptera frugiperda): 100%

CON=Cc1cc(C)c(NC(=O)c2cc(Br)nn2-c2ncccc2Cl)c(C(=O)NN(C)C(=O)OC)c1 (mixture of isomers) [A-45]
log p ([1]; Table A): 2.50 | efficacy (aphids killed) (Myzus persicae): 100% | efficacy (beetle larvae killed) (Phaedon cochleariae): 100% | efficacy (caterpillars killed) (Spodoptera frugiperda): 100%

CON=Cc1cc(C)c(NC(=O)c2cc(C(F)F)nn2-c2ncccc2Cl)c(C(=O)NN(C)C(=O)OC)c1 (mixture of isomers) [A-47]
log p ([1]; Table A): 2.21 | efficacy (aphids killed) (Myzus persicae): 90% | efficacy (beetle larvae killed) (Phaedon cochleariae): 100% | efficacy (caterpillars killed) (Spodoptera frugiperda): 100%

CON=Cc1cc(C)c(NC(=O)c2cc(C(F)(F)F)nn2-c2ncccc2Cl)c(C(=O)N(C)NC(=O)OC)c1 (mixture of isomers) [A-48]
log p ([1]; Table A): 3.00 | efficacy (aphids killed) (Myzus persicae): 100% | efficacy (beetle larvae killed) (Phaedon cochleariae): 100% | efficacy (caterpillars killed) (Spodoptera frugiperda): 100%

CON=Cc1cc(C)c(NC(=O)c2cc(OC(F)F)nn2-c2ncccc2Cl)c(C(=O)NN(C)C(=O)OC)c1 (mixture of isomers) [A-49]
log p ([1]; Table A): 2.60 | efficacy (aphids killed) (Myzus persicae): 90% | efficacy (beetle larvae killed) (Phaedon cochleariae): 100% | efficacy (caterpillars killed) (Spodoptera frugiperda): 100%

CON=Cc1cc(C)c(NC(=O)c2cc(Br)nn2-c2ncccc2Cl)c(C(=O)NC2COC2)c1 (mixture of isomers) [B-03]
log p ([1]; Table B): 2.44 | efficacy (aphids killed) (Myzus persicae): 100% | efficacy (beetle larvae killed) (Phaedon cochleariae): 100% | efficacy (caterpillars killed) (Spodoptera frugiperda): 100%

CON=Cc1cc(C)c(NC(=O)c2cc(C(F)(F)F)nn2-c2ncccc2Cl)c(C(=O)NC2C[S+]([O-])C2)c1 (mixture of isomers) [B-05]
log p ([1]; Table B): 2.51 | efficacy (aphids killed) (Myzus persicae): 90% | efficacy (beetle larvae killed) (Phaedon cochleariae): 100% | efficacy (caterpillars killed) (Spodoptera frugiperda): 100%

CON=Cc1cc(C)c(NC(=O)c2cc(C(F)(F)F)nn2-c2ncccc2Cl)c(C(=O)NC2CSC2)c1 (mixture of isomers) [B-06]
log p ([1]; Table B): 3.46 | efficacy (aphids killed) (Myzus persicae): 90% | efficacy (beetle larvae killed) (Phaedon cochleariae): 100% | efficacy (caterpillars killed) (Spodoptera frugiperda): 100%

CON=Cc1cc(C)c(NC(=O)c2cc(OC)nn2-c2ncccc2Cl)c(C(=O)NC2COC2)c1 (mixture of isomers) [B-10]
log p ([1]; Table B): 2.04 | efficacy (aphids killed) (Myzus persicae): 100% | efficacy (beetle larvae killed) (Phaedon cochleariae): 100% | efficacy (caterpillars killed) (Spodoptera frugiperda): 100%

CON=Cc1cc(C)c(NC(=O)c2cc(C(F)F)nn2-c2ncccc2Cl)c(C(=O)NC2COC2)c1 (mixture of isomers) [B-11]
log p ([1]; Table B): 2.31 | efficacy (aphids killed) (Myzus persicae): 100% | efficacy (beetle larvae killed) (Phaedon cochleariae): 100% | efficacy (caterpillars killed) (Spodoptera frugiperda): 100%

CON=Cc1cc(C)c(NC(=O)c2cc(CF)nn2-c2ncccc2Cl)c(C(=O)NC2COC2)c1 (mixture of isomers) [B-12]
log p ([1]; Table B): 2.04 | efficacy (beetle larvae killed) (Phaedon cochleariae): 100%

CON=Cc1cc(C)c(NC(=O)c2cc(OC)nn2-c2ncccc2Cl)c(C(=O)NC2CC2)c1 (mixture of isomers) [C-30]
log p ([1]; Table C): 2.97 | efficacy (beetle larvae killed) (Phaedon cochleariae): 100% | efficacy (caterpillars killed) (Spodoptera frugiperda): 100%

CON=Cc1cc(C)c(NC(=O)c2cc(OC)nn2-c2ncccc2Cl)c(C(=O)NC(C)C2CC2)c1 (mixture of isomers) [C-31]
log p ([1]; Table C): 3.66 | efficacy (beetle larvae killed) (Phaedon cochleariae): 100% | efficacy (caterpillars killed) (Spodoptera frugiperda): 100%

CON=Cc1cc(C)c(NC(=O)c2cc(OC)nn2-c2ncccc2Cl)c(C(=O)NC(C)C)c1 (mixture of isomers) [C-32]
log p ([1]; Table C): 3.22 | efficacy (aphids killed) (Myzus persicae): 90% | efficacy (beetle larvae killed) (Phaedon cochleariae): 100% | efficacy (caterpillars killed) (Spodoptera frugiperda): 100%

CNC(=O)c1cc(C=NOC)cc(C)c1NC(=O)c1cc(OC)nn1-c1ncccc1Cl (mixture of isomers) [C-33]
log p ([1]; Table C): 2.70 | efficacy (aphids killed) (Myzus persicae): 90% | efficacy (beetle larvae killed) (Phaedon cochleariae): 100% | efficacy (caterpillars killed) (Spodoptera frugiperda): 100%

CON=Cc1cc(C)c(NC(=O)c2cc(OC)nn2-c2ncccc2Cl)c(C(=O)NC(C)(C)C)c1 (mixture of isomers) [C-37]
log p ([1]; Table C): 3.71 | efficacy (aphids killed) (Myzus persicae): 90% | efficacy (beetle larvae killed) (Phaedon cochleariae): 100% | efficacy (caterpillars killed) (Spodoptera frugiperda): 100%

CON=Cc1cc(C)c(NC(=O)c2cc(Br)nn2-c2ncccc2Cl)c(C(=O)N(C)NC(=O)OC)c1 [A-03]
log p ([1]; Table A): 2.74 | efficacy (beetle larvae killed) (Phaedon cochleariae): 100% | efficacy (caterpillars killed) (Spodoptera frugiperda): 100%

CON=Cc1cc(C)c(NC(=O)c2cc(Br)nn2-c2ncccc2Cl)c(C(=O)NNC(=O)OC(C)C)c1 [A-06]
log p ([1]; Table A): 2.88 | efficacy (beetle larvae killed) (Phaedon cochleariae): 100% | efficacy (caterpillars killed) (Spodoptera frugiperda): 100%

C#CCOC(=O)NNC(=O)c1cc(C=NOC)cc(C)c1NC(=O)c1cc(Br)nn1-c1ncccc1Cl [A-08]
log p ([1]; Table A): 2.58 | efficacy (aphids killed) (Myzus persicae): 100% | efficacy (beetle larvae killed) (Phaedon cochleariae): 100% | efficacy (caterpillars killed) (Spodoptera frugiperda): 100%

CON=Cc1cc(C)c(NC(=O)c2cc(C(F)(F)F)nn2-c2ncccc2Cl)c(C(=O)NNC(=O)OC(C)C)c1 [A-18]
log p ([1]; Table A): 3.17 | efficacy (beetle larvae killed) (Phaedon cochleariae): 100% | efficacy (caterpillars killed) (Spodoptera frugiperda): 100%

COCCOC(=O)NNC(=O)c1cc(C=NOC)cc(C)c1NC(=O)c1cc(C(F)(F)F)nn1-c1ncccc1Cl [A-20]
log p ([1]; Table A): 2.74 | efficacy (aphids killed) (Myzus persicae): 90% | efficacy (beetle larvae killed) (Phaedon cochleariae): 100% | efficacy (caterpillars killed) (Spodoptera frugiperda): 100%

C=CCOC(=O)NNC(=O)c1cc(C=NOC)cc(C)c1NC(=O)c1cc(C(F)(F)F)nn1-c1ncccc1Cl [A-21]
log p ([1]; Table A): 3.04 | efficacy (aphids killed) (Myzus persicae): 90% | efficacy (beetle larvae killed) (Phaedon cochleariae): 100% | efficacy (caterpillars killed) (Spodoptera frugiperda): 100%

CON=Cc1cc(C)c(NC(=O)c2cc(C(F)(F)F)nn2-c2ncccc2Cl)c(C(=O)N(C)NC(=O)OC(C)C)c1 [A-25]
log p ([1]; Table A): 3.57 | efficacy (beetle larvae killed) (Phaedon cochleariae): 100% | efficacy (caterpillars killed) (Spodoptera frugiperda): 100%

CON=Cc1cc(C)c(NC(=O)c2cc(C(F)(F)F)nn2-c2ncccc2Cl)c(C(=O)N(C)NS(C)(=O)=O)c1 [A-31]
log p ([1]; Table A): 2.88 | efficacy (beetle larvae killed) (Phaedon cochleariae): 100% | efficacy (caterpillars killed) (Spodoptera frugiperda): 100%

CON=Cc1cc(C)c(NC(=O)c2cc(OC(C)C)nn2-c2ncccc2Cl)c(C(=O)NC2CC2)c1 [C-06]
log p ([1]; Table C): 2.98 | efficacy (beetle larvae killed) (Phaedon cochleariae): 100% | efficacy (caterpillars killed) (Spodoptera frugiperda): 100%

CON=Cc1cc(C)c(NC(=O)c2cc(OCC(F)F)nn2-c2ncccc2Cl)c(C(=O)NC(C)C2CC2)c1 (stereo not shown) [C-18]
log p ([1]; Table C): 3.39 | efficacy (aphids killed) (Myzus persicae): 90% | efficacy (caterpillars killed) (Spodoptera frugiperda): 100%

COCC(C)NC(=O)c1cc(C=NOC)cc(C)c1NC(=O)c1cc(OCC(F)F)nn1-c1ncccc1Cl (stereo not shown) [C-39]
log p ([1]; Table C): 2.93 | efficacy (aphids killed) (Myzus persicae): 100% | efficacy (caterpillars killed) (Spodoptera frugiperda): 100%

C#CCNC(=O)c1cc(C=NOC)cc(C)c1NC(=O)c1cc(OCC(F)F)nn1-c1ncccc1Cl [C-52]
log p ([1]; Table C): 2.78 | efficacy (aphids killed) (Myzus persicae): 90% | efficacy (caterpillars killed) (Spodoptera frugiperda): 100%

COCC(C)NC(=O)c1cc(C=NOC)cc(C)c1NC(=O)c1cc(CF)nn1-c1ncccc1Cl (stereo not shown) [C-54]
log p ([1]; Table C): 2.47 | efficacy (aphids killed) (Myzus persicae): 90% | efficacy (caterpillars killed) (Spodoptera frugiperda): 100%

CNC(=O)c1cc(C=NOC)cc(C)c1NC(=O)c1cc(OC(C)C)nn1-c1ncccc1Cl [C-65]
log p ([1]; Table C): 2.75 | efficacy (beetle larvae killed) (Phaedon cochleariae): 100% | efficacy (caterpillars killed) (Spodoptera frugiperda): 100%
